In patent publication US7601750B2, “Small molecule inhibition of a PDZ-domain interaction” (The Regents of the University of California, priority 2003, dated 2009):

Key:
H513 = assay: Apoptotic effects in cancer cells overexpressing Dvl, H513; format: cell-based, human; conditions: for apoptosis, %: H513, 1 day
Description: (§1) Compounds were tested for apoptotic effects to represent the inhibitory effects of compounds on interaction between the PDZ domain of the Dishevelled (Dlv) protein and the Fz protein (Wnt receptor). Cell lines H513 and H1703 were utilized, with test compounds (compound numbers from Tables 1 and 2) being applied at 0 (control), 10 μM and 100 μM.

[1] = test system: human Dishevelled (Dvl) protein; assay: Binding to Dishevelled protein
[2] = test system: human melanoma (LOX) cells; assay: Growth suppression and apoptosis in melanoma cells (other tests); format: cell-based; conditions: 100 μM, after 4 days
[3] = test system: human lung cancer (H1073) cells; assay: Growth suppression and apoptosis in lung cancer cells (other tests); format: cell-based; conditions: 100 μM, after 4 days
[4] = test system: Wnt/beta-Catenin signaling; assay: Inhibition of Wnt/beta-Catenin signaling in H1703; format: cell-based; conditions: human lung cancer cell line H1703
[5] = test system: Wnt/beta-Catenin signaling; assay: Inhibition of Wnt/beta-Catenin signaling in A549; format: cell-based; conditions: human lung cancer cell line A549
H1703 = assay: Apoptotic effects in cancer cells overexpressing Dvl, H1703; format: cell-based, human
Description: as §1

[6] = test system: human lung cancer (H460) cells; assay: Growth suppression and apoptosis in lung cancer H460 cells (other tests); format: cell-based; conditions: 100 μM, after 4 days

Row | Compound | apoptosis, % (H513; 10 μM) | apoptosis, % (H513; 100 μM) | suppress cancer cell growth and induce apoptosis, % of the population (H513; 100 μM, after 4 days, human mesothelioma (H513) cells) | binding to human Dishevelled (Dvl) protein [1] | suppress cancer cell growth and induce apoptosis, % of the population [2] | suppress cancer cell growth and induce apoptosis, % of the population [3] | inhibition of Wnt/beta-Catenin signaling [4] | inhibition of Wnt/beta-Catenin signaling [5] | apoptosis, % (H1703; 10 μM, H1703, 1 day) | apoptosis, % (H1703; 100 μM, H1703, 1 day) | suppress cancer cell growth and induce apoptosis, % of the population [6] | apoptosis, % (H1703; 10 μM, H1703, 4 days) | apoptosis, % (H1703; 100 μM, H1703, 4 days)
1 | CCCCCc1c(CO)c2cc(C)c(C(=O)[O-])cc2n1CCc1ccccc1.[Na+] [Compound 6, Sodium [3-hydroxymethyl-2-(1-pentyl)-1-(2-phenylethyl)-5-methyl]indole-6-carboxylate] | 14.3% | 52.5% | over 50% | bind | 35% | up to 85.2% | inhibit | inhibit | 8.2% | 34.0% | about 20% | – | –
2 | CCCCC(O)c1cc2cc(C)c(C(=O)O)cc2n1CCc1ccccc1 (stereo not shown) [Compound 1, [2-(1-Hydroxypentyl)-5-methyl-1-(2-phenylethyl)]indole-6-carboxylic acid] | – | – | – | – | – | – | – | – | – | – | – | 6.2% | 38.7%
